Data reported in ChEMBL document CHEMBL5291721, “A preclinical secondary pharmacology resource illuminates target-adverse drug reaction associations of marketed drugs” (Nat Commun, 2023).
Values belong to the compound of their own block, whether it stands above or below them.

Columns and labels:
[1] = target: T1, Type-1 angiotensin II receptor (Homo sapiens, UniProt P30556)
T1 sequence (P30556 whole entry): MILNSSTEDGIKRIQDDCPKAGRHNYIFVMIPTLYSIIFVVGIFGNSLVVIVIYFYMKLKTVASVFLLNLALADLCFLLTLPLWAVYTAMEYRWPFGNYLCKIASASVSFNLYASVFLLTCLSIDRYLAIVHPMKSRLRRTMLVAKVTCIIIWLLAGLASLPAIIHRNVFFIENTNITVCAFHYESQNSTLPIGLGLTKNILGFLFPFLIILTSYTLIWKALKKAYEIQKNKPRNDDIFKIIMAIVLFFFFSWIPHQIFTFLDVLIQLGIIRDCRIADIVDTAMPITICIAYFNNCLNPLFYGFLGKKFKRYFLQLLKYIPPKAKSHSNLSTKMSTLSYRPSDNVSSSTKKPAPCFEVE

Estrogen receptor = target: T2, Estrogen receptor (Homo sapiens, UniProt P03372); format: functional
T2 sequence (P03372 whole entry): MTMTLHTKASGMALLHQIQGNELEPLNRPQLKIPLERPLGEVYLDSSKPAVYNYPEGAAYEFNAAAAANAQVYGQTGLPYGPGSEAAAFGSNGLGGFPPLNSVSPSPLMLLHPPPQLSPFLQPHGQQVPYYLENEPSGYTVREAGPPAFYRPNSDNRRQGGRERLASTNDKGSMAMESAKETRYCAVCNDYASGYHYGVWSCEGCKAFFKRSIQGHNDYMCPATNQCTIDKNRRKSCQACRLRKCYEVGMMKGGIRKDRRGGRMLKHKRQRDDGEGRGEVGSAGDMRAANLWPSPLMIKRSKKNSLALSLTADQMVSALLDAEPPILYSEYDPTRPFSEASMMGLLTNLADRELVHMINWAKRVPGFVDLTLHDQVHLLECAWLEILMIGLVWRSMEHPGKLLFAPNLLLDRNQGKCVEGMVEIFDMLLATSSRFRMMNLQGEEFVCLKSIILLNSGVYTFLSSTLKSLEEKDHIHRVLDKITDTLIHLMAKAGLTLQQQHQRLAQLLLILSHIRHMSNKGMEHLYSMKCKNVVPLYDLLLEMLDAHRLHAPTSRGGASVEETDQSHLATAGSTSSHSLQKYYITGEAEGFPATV

[2] = target: T3, Peroxisome proliferator-activated receptor alpha (Homo sapiens, UniProt Q07869); format: functional
T3 sequence (Q07869 whole entry): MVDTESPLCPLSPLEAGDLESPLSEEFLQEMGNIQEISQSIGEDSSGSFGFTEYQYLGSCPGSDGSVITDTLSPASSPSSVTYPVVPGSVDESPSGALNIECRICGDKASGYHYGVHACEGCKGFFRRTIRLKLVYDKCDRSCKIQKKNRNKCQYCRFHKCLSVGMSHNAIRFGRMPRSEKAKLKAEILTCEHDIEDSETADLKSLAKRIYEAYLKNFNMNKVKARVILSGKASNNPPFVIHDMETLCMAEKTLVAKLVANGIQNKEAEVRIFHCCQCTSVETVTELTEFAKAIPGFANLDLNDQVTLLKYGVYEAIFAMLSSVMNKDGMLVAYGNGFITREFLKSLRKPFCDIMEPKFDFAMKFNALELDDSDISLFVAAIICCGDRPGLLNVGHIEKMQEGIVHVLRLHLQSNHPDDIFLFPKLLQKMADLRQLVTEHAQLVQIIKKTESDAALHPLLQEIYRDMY

Adenosine receptor A3 = target: T4, Adenosine receptor A3 (Homo sapiens, UniProt P0DMS8)
T4 sequence (P0DMS8 whole entry): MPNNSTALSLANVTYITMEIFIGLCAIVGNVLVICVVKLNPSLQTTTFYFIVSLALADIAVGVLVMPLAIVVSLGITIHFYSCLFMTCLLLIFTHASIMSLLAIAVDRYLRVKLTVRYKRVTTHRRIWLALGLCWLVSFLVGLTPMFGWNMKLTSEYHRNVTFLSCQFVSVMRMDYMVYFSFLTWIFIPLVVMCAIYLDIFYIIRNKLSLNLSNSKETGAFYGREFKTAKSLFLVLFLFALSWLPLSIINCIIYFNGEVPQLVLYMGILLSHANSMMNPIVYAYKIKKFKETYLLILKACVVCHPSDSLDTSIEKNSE

[3] = target: T5, Alpha-2A adrenergic receptor (Homo sapiens, UniProt P08913)
T5 sequence (P08913 whole entry): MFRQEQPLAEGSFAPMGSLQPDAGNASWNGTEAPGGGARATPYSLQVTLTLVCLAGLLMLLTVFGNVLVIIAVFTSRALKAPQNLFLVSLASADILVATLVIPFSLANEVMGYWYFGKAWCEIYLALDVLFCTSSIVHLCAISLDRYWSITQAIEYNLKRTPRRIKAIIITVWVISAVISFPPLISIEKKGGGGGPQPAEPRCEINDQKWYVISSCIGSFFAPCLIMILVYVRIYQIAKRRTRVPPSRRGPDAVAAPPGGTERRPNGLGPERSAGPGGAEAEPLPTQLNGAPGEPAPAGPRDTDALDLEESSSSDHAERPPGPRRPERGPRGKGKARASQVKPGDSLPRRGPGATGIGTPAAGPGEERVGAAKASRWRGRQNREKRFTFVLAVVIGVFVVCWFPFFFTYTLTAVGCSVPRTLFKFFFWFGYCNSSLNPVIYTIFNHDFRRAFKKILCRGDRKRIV

D(1A) dopamine receptor = D(1A) dopamine receptor (Homo sapiens, UniProt P21728)
Chain of D(1A) dopamine receptor (P21728 whole entry): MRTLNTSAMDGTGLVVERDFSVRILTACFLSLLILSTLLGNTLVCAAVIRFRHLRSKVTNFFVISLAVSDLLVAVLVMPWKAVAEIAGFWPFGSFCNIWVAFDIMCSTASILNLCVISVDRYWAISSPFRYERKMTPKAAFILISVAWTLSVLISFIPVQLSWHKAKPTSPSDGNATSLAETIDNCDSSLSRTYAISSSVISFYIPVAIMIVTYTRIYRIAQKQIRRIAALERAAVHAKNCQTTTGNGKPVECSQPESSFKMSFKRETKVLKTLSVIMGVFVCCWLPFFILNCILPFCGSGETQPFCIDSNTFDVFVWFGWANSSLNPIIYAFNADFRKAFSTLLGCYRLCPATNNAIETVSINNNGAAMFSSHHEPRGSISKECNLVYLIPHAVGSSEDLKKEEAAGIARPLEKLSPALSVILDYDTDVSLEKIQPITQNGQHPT

Histamine H3 receptor = Histamine H3 receptor (Homo sapiens, UniProt Q9Y5N1)
Chain of Histamine H3 receptor (Q9Y5N1 whole entry): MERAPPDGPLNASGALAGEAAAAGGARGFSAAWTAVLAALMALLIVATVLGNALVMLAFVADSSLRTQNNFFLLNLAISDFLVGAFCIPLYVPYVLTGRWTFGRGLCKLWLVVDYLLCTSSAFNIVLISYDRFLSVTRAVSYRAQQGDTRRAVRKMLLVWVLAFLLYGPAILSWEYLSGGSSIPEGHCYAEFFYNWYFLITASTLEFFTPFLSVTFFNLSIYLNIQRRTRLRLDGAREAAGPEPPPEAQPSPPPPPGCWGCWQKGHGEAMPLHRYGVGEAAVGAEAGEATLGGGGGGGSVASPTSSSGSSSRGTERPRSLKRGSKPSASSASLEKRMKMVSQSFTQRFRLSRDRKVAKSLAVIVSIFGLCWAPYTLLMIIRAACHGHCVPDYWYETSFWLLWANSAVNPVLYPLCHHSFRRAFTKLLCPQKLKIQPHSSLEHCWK

Mu-type opioid receptor = Mu-type opioid receptor (Homo sapiens, UniProt P35372)
Chain of Mu-type opioid receptor (P35372 whole entry): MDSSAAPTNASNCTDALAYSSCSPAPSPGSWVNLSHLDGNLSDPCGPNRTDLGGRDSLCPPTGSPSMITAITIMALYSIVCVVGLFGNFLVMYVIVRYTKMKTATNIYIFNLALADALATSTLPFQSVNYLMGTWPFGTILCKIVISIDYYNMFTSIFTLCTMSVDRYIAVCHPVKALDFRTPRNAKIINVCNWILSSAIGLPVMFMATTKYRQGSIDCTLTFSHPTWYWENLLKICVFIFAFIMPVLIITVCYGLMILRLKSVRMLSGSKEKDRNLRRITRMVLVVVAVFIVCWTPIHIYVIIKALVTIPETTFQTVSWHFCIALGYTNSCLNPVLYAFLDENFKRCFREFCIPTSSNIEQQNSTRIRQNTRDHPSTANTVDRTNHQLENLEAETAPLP

[4] = target: cGMP-inhibited 3',5'-cyclic phosphodiesterase 3A (Homo sapiens, UniProt Q14432); format: functional
Chain of cGMP-inhibited 3',5'-cyclic phosphodiesterase 3A (Q14432 whole entry): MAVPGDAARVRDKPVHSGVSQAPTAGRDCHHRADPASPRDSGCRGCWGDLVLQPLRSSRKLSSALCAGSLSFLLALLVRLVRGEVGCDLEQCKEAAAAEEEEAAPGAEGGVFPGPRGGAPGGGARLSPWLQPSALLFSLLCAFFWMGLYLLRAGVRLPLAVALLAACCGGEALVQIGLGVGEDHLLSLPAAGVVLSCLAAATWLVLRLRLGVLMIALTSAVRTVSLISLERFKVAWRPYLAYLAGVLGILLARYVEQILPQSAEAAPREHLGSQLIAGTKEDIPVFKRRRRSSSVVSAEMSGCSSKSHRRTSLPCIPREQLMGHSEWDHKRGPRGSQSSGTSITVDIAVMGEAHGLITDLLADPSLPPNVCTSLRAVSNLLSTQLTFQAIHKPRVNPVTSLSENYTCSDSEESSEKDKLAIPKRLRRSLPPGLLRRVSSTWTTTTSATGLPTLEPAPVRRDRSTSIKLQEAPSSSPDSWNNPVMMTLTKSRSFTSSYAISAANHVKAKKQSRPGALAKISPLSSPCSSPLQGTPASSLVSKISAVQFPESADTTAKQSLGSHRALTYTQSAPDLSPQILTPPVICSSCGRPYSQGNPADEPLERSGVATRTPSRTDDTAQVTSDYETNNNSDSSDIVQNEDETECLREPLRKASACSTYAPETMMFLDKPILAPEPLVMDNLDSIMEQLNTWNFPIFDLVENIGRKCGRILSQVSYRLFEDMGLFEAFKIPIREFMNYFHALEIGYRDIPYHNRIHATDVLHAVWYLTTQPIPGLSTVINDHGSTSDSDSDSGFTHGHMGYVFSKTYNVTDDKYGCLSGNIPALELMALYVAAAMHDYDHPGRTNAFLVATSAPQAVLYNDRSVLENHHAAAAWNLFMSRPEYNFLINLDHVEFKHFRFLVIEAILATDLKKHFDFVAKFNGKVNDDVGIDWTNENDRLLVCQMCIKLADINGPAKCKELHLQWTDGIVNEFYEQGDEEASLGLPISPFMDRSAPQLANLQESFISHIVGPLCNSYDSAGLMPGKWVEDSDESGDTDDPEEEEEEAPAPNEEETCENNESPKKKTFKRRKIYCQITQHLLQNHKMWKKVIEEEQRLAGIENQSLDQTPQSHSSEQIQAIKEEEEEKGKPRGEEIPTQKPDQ

[5] = target: T6, Prostaglandin G/H synthase 1 (Homo sapiens, UniProt P23219); format: functional
T6 sequence (P23219 whole entry): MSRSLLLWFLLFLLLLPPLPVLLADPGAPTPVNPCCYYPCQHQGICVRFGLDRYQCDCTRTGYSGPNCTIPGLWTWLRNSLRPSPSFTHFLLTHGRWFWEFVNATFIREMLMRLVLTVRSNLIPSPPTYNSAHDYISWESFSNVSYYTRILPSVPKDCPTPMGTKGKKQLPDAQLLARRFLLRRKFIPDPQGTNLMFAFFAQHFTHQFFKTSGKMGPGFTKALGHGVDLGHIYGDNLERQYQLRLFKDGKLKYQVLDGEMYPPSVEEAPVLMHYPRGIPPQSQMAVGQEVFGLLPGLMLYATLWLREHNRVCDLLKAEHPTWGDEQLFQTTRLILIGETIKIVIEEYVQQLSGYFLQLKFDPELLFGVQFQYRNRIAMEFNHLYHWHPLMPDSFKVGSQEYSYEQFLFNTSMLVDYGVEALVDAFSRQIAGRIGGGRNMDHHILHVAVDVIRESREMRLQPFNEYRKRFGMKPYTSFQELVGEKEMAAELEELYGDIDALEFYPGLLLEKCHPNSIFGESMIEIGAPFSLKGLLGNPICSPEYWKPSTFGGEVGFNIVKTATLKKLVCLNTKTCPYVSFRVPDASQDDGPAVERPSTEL

[6] = target: T6, Prostaglandin G/H synthase 1; format: functional; remark: listed apart in the source
Thromboxane A2 receptor = target: T7, Thromboxane A2 receptor (Homo sapiens, UniProt P21731); format: functional, cell-based
T7 sequence (P21731 whole entry): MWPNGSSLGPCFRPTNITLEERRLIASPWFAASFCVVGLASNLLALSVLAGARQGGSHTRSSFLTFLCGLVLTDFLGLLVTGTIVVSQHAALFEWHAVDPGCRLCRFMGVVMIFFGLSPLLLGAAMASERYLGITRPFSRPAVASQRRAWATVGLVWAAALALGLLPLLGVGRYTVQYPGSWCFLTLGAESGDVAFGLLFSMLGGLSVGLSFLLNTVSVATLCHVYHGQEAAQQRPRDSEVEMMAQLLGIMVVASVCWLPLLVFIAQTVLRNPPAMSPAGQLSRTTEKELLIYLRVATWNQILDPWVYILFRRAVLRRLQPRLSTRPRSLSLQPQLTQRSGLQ
Further: assay procedure not described here.

SMILES: O=c1c(O)c(-c2ccc(O)c(O)c2)oc2cc(O)cc(O)c12 [QUERCETIN]
AC50 [1]: > 100 µM

AC50 (Estrogen receptor): > 30 µM
SMILES: CCOC(=O)[C@@H](N)Cc1ccc(-c2cc(O[C@H](c3ccc(Cl)cc3-n3ccc(C)n3)C(F)(F)F)nc(N)n2)cc1 [TELOTRISTAT ETHYL]

AC50 [2]: > 30 µM
SMILES: CCOC(=O)C(C)(C)Oc1ccc(Cl)cc1 [CLOFIBRATE]

AC50 (Adenosine receptor A3): > 30 µM
AC50 [3]: 11.9 µM
AC50 (D(1A) dopamine receptor): 12.3 µM
AC50 (Histamine H3 receptor): 0.693 µM
AC50 (Mu-type opioid receptor): 5.86 µM
AC50 [4]: > 30 µM
AC50 [5]: > 30 µM
AC50 [6]: > 30 µM
AC50 (Thromboxane A2 receptor): > 1 µM
SMILES: CCN(CC)CCCC(C)Nc1c2ccc(Cl)cc2nc2ccc(OC)cc12 (configuration not stated) [QUINACRINE]
